Test results as given in article PMC6969517 (Proceedings of the National Academy of Sciences of the …, 2019).

Biological target: T1, ShkA (Caulobacter vibrioides, UniProt Q9ABT2)
T1 sequence (Q9ABT2 1-514): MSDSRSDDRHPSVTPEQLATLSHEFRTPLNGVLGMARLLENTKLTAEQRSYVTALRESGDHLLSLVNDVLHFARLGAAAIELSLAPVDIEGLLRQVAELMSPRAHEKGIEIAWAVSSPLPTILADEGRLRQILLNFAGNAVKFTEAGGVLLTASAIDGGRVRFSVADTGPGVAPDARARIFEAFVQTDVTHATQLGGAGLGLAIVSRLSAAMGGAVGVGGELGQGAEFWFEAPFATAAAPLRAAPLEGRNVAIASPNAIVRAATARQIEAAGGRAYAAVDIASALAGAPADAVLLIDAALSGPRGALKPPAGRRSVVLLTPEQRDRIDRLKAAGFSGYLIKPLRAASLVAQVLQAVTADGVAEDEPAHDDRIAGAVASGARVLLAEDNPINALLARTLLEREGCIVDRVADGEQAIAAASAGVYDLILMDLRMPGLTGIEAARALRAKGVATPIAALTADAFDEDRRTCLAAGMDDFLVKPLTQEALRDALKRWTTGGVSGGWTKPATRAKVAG
Assay: FCA and ITC
Type: biochemical

Ki: ~60 µM
SMILES: Nc1ncnc2c1ncn2[C@@H]1O[C@H](COP(=O)(O)OP(=O)(O)O)[C@@H](O)[C@H]1O [ADP]
